A value given as a limit tells only on which side of the number the result lay.

Holding throughout (type): cell-based, human
The test system of experiment [1] is AKT in Jurkat cells. As to the kind of experiment: Western blot of phosphorylated and total AKT. The following applies: 2 μg/ml (F035 printed '2 ml'), 15 hr. The procedure: The effect of F035 on phosphorylation of AKT was analyzed as follows. Jurkat cells (5×10^6) were serum starved and exposed to F035 for 15 h and 2 h with wortmannin at 37° C. The cells were either induced with cd3XL (cd3 crosslink) or left uninduced for 10 min at 37° C. and lysed in AKT lysis buffer and the proteins were resolved on 8% SDS-PAGE gels and analyzed by western-ECL using phospho-specific AKT (Ser 473; New England Biolabs) and total AKT antibody. An assay of the effect of F035 on p70S6 kinase can be carried out similarly, but using a Phosphoplus p70S6 kinase antibody kit (New England Biolabs) for analysis of p70S6 kinase (Ser 411, thr421/ser424) phosphorylation. […] There was, however, no change in the expression of total AKT.
The expression of total and phosphorylated forms of AKT was determined by western blot analysis. Jurkat cells cultured in medium containing 0.5% FBS were treated with F035 and pure extracts D1 and G1 (2.0 μg/ml) for 15 h at 37° C. The cells were lysed in AKT Iysis buffer (20 mM Tris-HCl, 150 mM NaCI, 1 mM EDTA, 1 mM EGTA, 1% Triton X-100, 2.5 mM sodium pyrophosphate, 1 mM 8-glycerol phosphate, 1 mM Na3VO4, […], 1 mM PMSF pH 7.5). Cellular protein (40 μg) was resolved on 8% SDS-polyacrylamide gel and electrotransferred onto nitrocellulose membrane. Membranes were probed first with phosphospecific AKT (Ser 473) or AKT antibody followed by goat anti rabbit antibody conjugated to horseradish peroxidase. Proteins were detected by chemiluminescence (ECL, Amersham, Arlington Heights, Ill.).
(In general: Immunoblotting shows a protein as a band on a membrane.)

For experiment [2], the system named is pGL3-NF-κB in Jurkat cells. As to the kind of experiment: NF-κB dependent luciferase gene expression. As to conditions: transfected Jurkat; pretreatment. Here is the method:
Transfection and Assay of Luciferase Activity. Jurkat cells were transfected with pGL3-NF-κB by electroporation. The cells were then treated with monoterpene/triterpene glycoside G1 (1 μg/ml) for 16 h. NF-κB was activated using LPS (100 ng/ml), PMA (5 ng/ml), or TNF (1 nM). Luciferase activity was measured using the luciferase assay kit (Promega, Madison, Wis.) as per the manufacturer's instructions.

For experiment [3], the system named is PARP in Jurkat cells. Nature of the experiment: Immunoblot analysis of PARP degradation. As to conditions: 2 μg/ml. Here is the method:
Apoptosis induced by F035 & D1 was examined by proteolytic cleavage of poly (ADP-ribose) polymerase (PARP). Jurkat cells (2×10^6/ml) were treated with F035 (2 μg/ml) and D1 (2 μg/ml) for different lengths of time. Cell lysates were prepared in buffer containing 20 mM HEPES, 250 mM NaCl, 2 mM EDTA, 0.1% NP-40, 2 μg/ml leupeptin, 2 μg/ml aprotinin, 0.5 μg/ml benzamidine, 1 mM DTT and 1 mM PMSF. Cellular proteins (60 μg/ml) were separated on a 7.5% SDS polyacrylamide gel and electrotransferred onto a nitrocellulose membrane. The membrane was probed first with monclonal anti-PARP antibody (PharMingen) and then with anti-mouse antibody conjugated to horse radish peroxidase (HRPO). Protein bands were detected by chemiluminescense (ECL, Amersham). The extent of cleavage of the 116-kDa PARP into 85-kDa and 41-kDa peptide products was used as a measure of apoptosis (Tewari et al., 1995).
Immunoblot Analysis of PARP Degradation. Induction of apoptosis was also examined by proteolytic cleavage of PARP (Nicholson and Thornberry, 1997). Jurkat cells (3×10^6) were treated with 2 μg/ml of F094, avicin D, or avicin G at 37° C. Cell lysates were prepared in a buffer containing 20 mM HEPES, 250 mM NaCl, 2 mM EDTA, 0.1% NP-40, 2 μg/ml leupeptin, 2 μg/ml aprotinin, 0.5 μg/ml benzamidine, 1 mM DTT, and 1 mM PMSF. Cellular proteins (60 μg/ml) were separated on a 7.5% SDS polyacrylamide gel and electrotransferred onto a nitrocellulose membrane. The membrane was probed first with monoclonal anti-PARP antibody (Pharmingen) and then with anti-mouse antibody conjugated to horseradish peroxidase (HRPO). Protein bands were detected by chemiluminescence (ECL). The appearance of an 85 kDa cleavage product was used as a measure of apoptosis.

Experiment [4] concerns caspase-3 in Jurkat cells. As to the kind of experiment: Assay for caspase-3 protease. The following applies: for start of caspase 3 activation: post treatment. The procedure:
Caspase-3 activity was measured as described earlier (Enari et al., 1995) with some modifications. Briefly, Jurkat cells (1×10^6/ml) were treated with F035, D1 & G1 for different lengths of time. Cytosolic extracts were prepared by repeated freeze thawing in 300 μl of extraction buffer (12.5 mM Tris, pH 7.0, 1 mM DTT, 0.125 mM EDTA, 5% glycerol, 1 μM PMSF, 1 μg/ml leupeptin, 1 μg/ml pepstatin and 1 μg/ml aprotinin). Cell lystates were diluted 1:2 with ICE buffer (50 mM Tris, pH 7.0, 0.5 mM EDTA, 4 mM DTT and 20% glycerol) and incubated with 20 μM of a caspase 3 substrate (acetyl-Asp-Glu-Val-Asp-aminomethylcoumarin) at 37° C. Caspase-3 activity was monitored by the production of fluorescent aminomethylcoumarin, which was measured at excitation 355 nm, emission 460 nm using Fluoroscan II (Labsystems, Helsinki, Finland).
Assay for Caspase-3 Protease. Caspase-3 activity was measured as described earlier (Martin et al, 1995) with some modifications. Briefly, Jurkat cells (1×10^6) were treated with F094, avicin D, or avicin G (2 μg/ml) at 37° C. Cytosolic extracts were prepared by repeated freeze thawing of the cells in 300 μl of an extraction buffer (12.5 mM Tris, pH 7.0, 1 mM DTT, 0.125 mM EDTA, 5% glycerol, 1 μM PMSF, 1 μg/ml leupeptin, 1 μg/ml pepstatin, and 1 μg/ml aprotinin). Cell lysates were diluted 1:2 with an ICE buffer (50 mM Tris, pH 7.0, 0.5 mM EDTA, 4 mM DTT, and 20% glycerol) and incubated with 20 μM of a caspase-3 substrate (acetyl-Asp-Glu-Val-Asp-aminomethylcoumarin) (Calbiochem, La Jolla, Calif.) at 37° C. Caspase-3 activity was monitored by the production of flourescent aminomethylcoumarin that was measured at excitation 355 nm and emission 460 nm, using Fluoroscan II (Labsystems, Helsinki, Finland).

On to `C=C[C@](C)(O)CC/C=C(\C)C(=O)O[C@H]1[C@H](O)[C@@H](O)[C@H](O[C@@](C)(C=C)CC/C=C(\CO)C(=O)O[C@H]2C[C@]3(C(=O)O[C@@H]4O[C@H](CO)[C@@H](O)[C@H](O)[C@H]4O[C@@H]4O[C@@H](C)[C@H](O[C@@H]5O[C@@H](CO)[C@H](O)[C@H]5O)[C@@H](O[C@@H]5O[C@H](CO)[C@@H](O)[C@H](O)[C@H]5O)[C@H]4O)[C@H](O)C[C@]4(C)C(=CC[C@@H]5[C@@]6(C)CC[C@H](O[C@@H]7O[C@H](CO[C@@H]8O[C@H](C)[C@H](O)[C@H](O)[C@H]8O[C@@H]8OC[C@@H](O)[C@H](O)[C@H]8O)[C@@H](O)[C@H](O)[C@H]7NC(C)=O)C(C)(C)[C@@H]6CC[C@]54C)[C@@H]3CC2(C)C)O[C@@H]1C` [Fraction G1], for which, in experiment [1], the AKT phosphorylation result is given as “inhibited AKT phosphorylation” and the “total AKT protein” value is given as “inhibited”. The “luciferase activity induced by LPS, PMA or TNF” value in experiment [2] was “significantly inhibited”. Also, the “time to (almost) complete cleavage of PARP” value in experiment [3] is at most 4 h. In experiment [4] (2 μg/ml), the “time at which activation of caspase-3 is detectable” value lay in the range of 2 to 4 h. Also, in experiment [4], the “start of caspase 3 activation” value is 4 h.

Take `C=C[C@](C)(O)CC/C=C(\CO)C(=O)O[C@H]1[C@H](O)[C@@H](O)[C@H](O[C@@](C)(C=C)CC/C=C(\CO)C(=O)O[C@H]2C[C@]3(C(=O)O[C@@H]4O[C@H](CO)[C@@H](O)[C@H](O)[C@H]4O[C@@H]4O[C@@H](C)[C@H](O[C@@H]5O[C@@H](CO)[C@H](O)[C@H]5O)[C@@H](O[C@@H]5O[C@H](CO)[C@@H](O)[C@H](O)[C@H]5O)[C@H]4O)[C@H](O)C[C@]4(C)C(=CC[C@@H]5[C@@]6(C)CC[C@H](O[C@@H]7O[C@H](CO[C@@H]8O[C@H](C)[C@H](O)[C@H](O)[C@H]8O[C@@H]8OC[C@@H](O)[C@H](O)[C@H]8O)[C@@H](O)[C@H](O)[C@H]7NC(C)=O)C(C)(C)[C@@H]6CC[C@]54C)[C@@H]3CC2(C)C)O[C@@H]1C` [Fraction D1]: in experiment [1], the AKT phosphorylation entry is “inhibited AKT phosphorylation” and the “total AKT protein” value is “inhibited”. Further, in experiment [3], the “time to (almost) complete cleavage of PARP” value lay within 8 to 16 h. In addition, the “start of caspase 3 activation” value in experiment [4] is 4 h.
